Patent US9902735B2, “Heteroaryl substituted compounds as RORγ inhibitors” (GlaxoSmithKline Intellectual Property Developement Limited, priority 2014, dated 2018)

Columns and labels:
RORγ-LBD = molecular target: T1, RORγ-LBD (Homo sapiens, UniProt P51449); assay: Fluorescence Energy Transfer (FRET) assay; type: biochemical; settings: mean of multiple test results if tested more than once; read-out: pIC50 in the FRET assay (converted)
T1 construct: adding an appropriate amount of biotinylated RORγ-LBD and APC-labeled streptavidin
T1 sequence (P51449 269-508 limits assumed): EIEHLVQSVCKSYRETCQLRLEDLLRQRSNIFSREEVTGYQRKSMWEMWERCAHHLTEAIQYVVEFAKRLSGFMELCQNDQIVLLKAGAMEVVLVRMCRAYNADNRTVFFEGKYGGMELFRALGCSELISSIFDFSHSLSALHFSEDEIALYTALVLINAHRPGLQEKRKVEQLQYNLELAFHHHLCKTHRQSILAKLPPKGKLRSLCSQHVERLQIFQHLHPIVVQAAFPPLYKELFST
Procedure: The assays were performed in an assay buffer consisting of 50 mM NaF, 50 mM 3-(N-morpholino)propanesulfonic acid, pH 7.5, 50 μM 3-[(3-cholamidopropyl)dimethylammonio]-propanesulfonate, 0.1 mg/mL bovine serum albumin, and 10 mM dithiothreitol in 384-well plates (Greiner 784076, Longwood, Fla.). The total volume was 10 μL/well. The europium-labeled SRC1 solution was prepared by adding an appropriate amount of biotinylated SRC and europium labeled streptavidin (PerkinElmer Life and Analytical Sciences, Waltham, Mass.) into assay buffer, with final concentrations of 27 and 3.3 nM, respectively. The allophycocyanin (APC)-labeled-LBD solution was prepared by adding an appropriate amount of biotinylated RORγ-LBD and APC-labeled streptavidin (CR130-100; PerkinElmer Life and Analytical Sciences) at a final concentration of 33 nM each. After 15 min of incubation at room temperature, a 20-fold excess of biotin was added to block the remaining free streptavidin. […] The plates were incubated for 1 h at room temperature and then read on ViewLux (PerkinElmer Life and Analytical Sciences) in LANCE mode configured for europeum-APC labels. Data were collected and analyzed by Activitybase.

RORγ = molecular target: T2, RORγ (Homo sapiens, UniProt P51449); assay: Jurkat cell luciferase assay (human IL17 promoter reporter); type: cell-based; settings: mean of multiple test results if tested more than once; read-out: pIC50 in the Jurkat cell luciferase assay (converted)
T2 construct: expressed in transfected cells
T2 sequence (P51449 1-497 isoform P51449-2): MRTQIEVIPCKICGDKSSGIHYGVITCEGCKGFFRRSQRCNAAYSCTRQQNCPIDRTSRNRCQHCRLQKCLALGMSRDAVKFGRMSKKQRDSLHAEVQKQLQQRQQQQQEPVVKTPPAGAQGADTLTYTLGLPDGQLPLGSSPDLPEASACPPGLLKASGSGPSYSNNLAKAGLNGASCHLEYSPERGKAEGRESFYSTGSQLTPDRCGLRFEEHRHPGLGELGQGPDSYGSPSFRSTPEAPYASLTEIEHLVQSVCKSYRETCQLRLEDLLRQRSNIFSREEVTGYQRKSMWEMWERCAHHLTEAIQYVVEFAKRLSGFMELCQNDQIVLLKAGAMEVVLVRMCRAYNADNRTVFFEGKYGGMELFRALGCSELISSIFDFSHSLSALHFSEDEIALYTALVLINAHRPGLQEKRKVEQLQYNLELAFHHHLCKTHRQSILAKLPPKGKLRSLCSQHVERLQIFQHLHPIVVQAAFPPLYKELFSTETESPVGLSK
Description: RORγ is known to bind to a CNS (conserved non-coding sequences) enhancer element in the IL17 promoter. In this assay, RORγ activity is indirectly assessed using a luciferase reporter construct which contains the human IL17 promoter having the RORγ-specific CNS enhancer element. Inhibition of RORγ activity by a compound will result in a decrease in luciferase activity of Jurkat cells transfected with the reporter construct.
For the luciferase reporter plasmid, the 3 Kb human IL17 promoter containing the RORγ-specific CNS enhancer element was PCR amplified from human genomic DNA and cloned into a pGL4-Luc2/hygro reporter plasmid sequentially as XhoI-HindIII (1.1 Kb) and KpnI-XhoI (1.9 Kb) fragments. For the 1.1 Kb fragment, PCR was used to amplify human IL17 proximal promoter region from genomic DNA of 293T cells using primers as follows: forward primer, 5′-[…]-3′ (XhoI site is underlined) and reverse primer, 5′-[…]-3′ (HindIII site is underlined). The 1.1 kb DNA bands were excised, purified, and inserted into pMD19-T Simple Vector (Takara). […]
Compounds were dissolved in DMSO at three concentrations, 10 mM, 400 uM and 16 uM, and were dispensed into 384-wells assay plate at 40 nl, 12.5 nl, 5 nl respectively. The volume was adjusted with pure DMSO to a give a final uniform volume of 40 nl Jurkat cells described above were counted and centrifuged. […]

## Cc1ncc(C(=O)Nc2cc(Cl)cc(CN3CCN(C(=O)CC4CC4)[C@@H](C)C3)c2C)cc1F [Example 80, (S)—N-(5-chloro-3-((4-(2-cyclopropylacetyl)-3-methylpiperazin-1-yl)methyl)-2-methylphenyl)-5-fluoro-6-methylnicotinamide]
RORγ-LBD
  IC50: ~50.1 nM
RORγ
  IC50: ~6.31 nM
